Results: PMC7477874, “Targeting L-Proline Uptake as New Strategy for Anti-chagas Drug Development” (Frontiers in Chemistry, 2020)
Values joined by “and” are separate entries in the source; they are usually repeats but may differ in a detail not shown here. Equal entries are not always repeated. “Also recorded” adds a separate entry of the source. Where two headings read alike, the source gives them in different places. Each block holds one compound with its values, some of them ahead of it.

Key:
[1] = tested on: T. cruzi epimastigotes (CL strain clone 14); conditions: cited from earlier work
[2] = tested on: T. cruzi epimastigotes (CL strain clone 14); assay: Growth inhibition assay on T. cruzi epimastigotes; assay type: cell-based, Trypanosoma cruzi; conditions: for Effect on parasite growth at the maximum concentration: 100 μM; for Times more active than T4C: T. cruzi epimastigotes, IC50 relative to T4C (890 μM)
Method: T. cruzi CL strain clone 14 epimastigotes (Brener and […], [1965]) were maintained in the exponential growth phase by subculturing every 48 h in Liver Infusion Tryptose (LIT) medium supplemented with 10% FCS (Vitrocell, Campinas, São Paulo, Brazil) at 28 °C. T. cruzi epimastigotes in the exponential growth phase (5.0-6.0 x 10^7 cells mL^-1) were cultured in fresh LIT medium. The cells were treated with different concentrations of drugs or not treated (negative control). A combination of Rotenone (60 μM) and Antimycin (0.5 μM) was used as a positive control for inhibition as previously described. (Magdaleno et al., [2009]) The cells (2.5 x 10^6 mL^-1) were transferred to 96-well culture plates and incubated at 28 °C. Cell proliferation was quantified by reading the optical density (OD) at 620 nm for 8 days. The OD was converted to cell density values (cells per mL) using a linear regression equation previously obtained under the same conditions. The concentration of compounds that inhibited 50% of parasite proliferation (IC50) was determined during the exponential growth phase (4 days) by fitting the data to a typical sigmoidal dose-response curve using OriginPro8. The compounds were evaluated in quadruplicate in each experiment. The results shown here correspond to three independent experiments. As a cell growth inhibition control, growth curves in which […] were added to the culture medium were run in parallel for all experiments.

Vero cells = assay: Cytotoxicity assay on Vero cells (MTT); assay type: cell-based, African green monkey; conditions: for IC50: Chlorocebus sabaeus, Vero, 48 h, MTT
Method: To evaluate the analogs toxicity, Vero cells previously plated on 96 multi-well plate in DMEM 2% FBS and incubated for 48 h at 37 °C in a humid atmosphere containing 5% CO2, were incubated with […] of DMEM 2% FBS supplemented with each analog for 48 h. The concentration (μM) was different with each analog:
The viability of cells was measured by MTT dye (3-(4,5-Dimethylthiazol-2-yl)-2,5-diphenyltratazolium bromide, Sigma-Aldrich) colorimetric method. Benznidazole and DMSO were used as positive and negative controls, respectively. Data are expressed as means ± SD of the results of three independent assays of each condition.

L-proline transporter = assay: L-Proline transport competition assay in T. cruzi epimastigotes; assay type: cell-based, Trypanosoma cruzi; conditions: 3.1 mM analog; for Proline uptake inhibition (in words): 0.31 mM L-proline; for % of Proline inh.: 0.31 mM L-proline (Km), 30 s
Method: Parasites in exponential growth phase were washed three times by centrifugation and resuspended in phosphate buffered saline (PBS), pH 7.4. Cells were counted in a Neubauer chamber, adjusted with the same buffer to a final density of 200 × 10^6 cells/mL and distributed in aliquots of 100 μL (containing 20 × 10^6 cells each). Transport assays were initiated by the addition to the assay tubes of 100 μL of the desired dilution of L-proline in PBS in the presence of […] of L-[3H] proline. Unless otherwise specified, V0 was measured at 28 °C for 30 s by incorporation of 0.75 and 3 mM L-proline traced with 1 μCi of U-^14C-L-Pro (Perkin Elmer). In all cases, proline transport was stopped by addition of […] of cold 50 mM proline in PBS (pH 7.4), and rapid washing by centrifugation at 10,000x g for 2 min. Background values in each experiment were measured by simultaneous addition of radiolabeled L-proline and stop solution as previously described (Silber et al., [2002]). For the competition assays, the transport experiments were performed as described above using the L-Pro concentration corresponding to the Km (0.31 mM). Those conditions were chosen considering an inhibitory activity by structurally related compounds should be competitive, and so, should be evidenced by a change in the […] at L-Pro concentrations close to the Km. Non-competitive inhibitors, if any, should diminish Vmax, which is measured at 10 x Km L-Pro (3.1 mM) (Silber et al., [2002]). […] The analogs were assayed on T. cruzi epimastigotes incubated with proline at the transporter Km concentration (0.31 mM), and the analogs were assayed at concentration 10-fold higher (3.1 mM). […] The oleyl derivate (3k), with an unsaturated fatty tail, has a similar IC50 on T. cruzi epimastigotes compared to the cetyl analog (3j) showing no inhibition in terms of proline uptake (Table 2).  Figure 4 Proline uptake assay. Pro control = Proline control, Pro comp = L-Proline as competitor. 3i-k and 3n = proline level incubated (*p < 0.05) with selected analogs. Pro control (0.31 mM L-proline, [^3H] proline, PBS). Pro Comp (3.1 mM L-proline, [^3H] proline, PBS). Compounds 3i-k and 3n (0.31 mM L-proline, 3.1 mM analog 3x, [^3H] proline, PBS). Stop solution: 50 mM L-proline added after 30 s.

[3] = Solubility observed in the Vero cytotoxicity assay; assay type: physicochemical; conditions: at 50 μM, Vero cytotoxicity assay medium
Method: Vero cells are well established model to test cytotoxicity in vitro because it is an aneuploid and a continuous cell linage. […] Compound 3j was not soluble at 50 μM which made not possible to calculate its IC50.

[4] = Trypanosoma cruzi, 96 h, epimastigotes CL14, IC50 at 4 days, means (SD) from three independent experiments, max. concentration 100 μM, read-out: T. cruzi IC50
[5] = epimastigotes CL14, IC50 at 4 days, means (SD) from three independent experiments, max. concentration 100 μM, read-out: T. cruzi IC50
[6] = Trypanosoma cruzi, epimastigotes, unit given as mM, read-out: T. cruzi epimastigotes IC50 (as restated in the discussion)

SMILES: O=C(Cn1ccnc1[N+](=O)[O-])NCc1ccccc1 [Benznidazole]
IC50 ([1]; epimastigotes, read-out: T. cruzi IC50): 7 µM

SMILES: COC(=O)[C@@H]1CCCN1Cc1cn(Cc2ccccc2)nn1 [Compound 3c, Methyl ((1-Benzyl-1H-1,2,3-Triazol-4-yl)Methyl)-L-Prolinate]
IC50 [2, 4]: > 0.1 mM | Effect on parasite growth at the maximum concentration ([2]; epimastigotes): did not affect the parasite growth; also recorded: inactive

SMILES: COC(=O)[C@@H]1CCCN1Cc1cn(C2CCCCC2)nn1 [Compound 3d, Methyl ((1-Cyclohexyl-1H-1,2,3-Triazol-4-yl)Methyl)-L-Prolinate]
IC50 [2, 4]: > 0.1 mM | Effect on parasite growth at the maximum concentration ([2]; epimastigotes): did not affect the parasite growth; also recorded: inactive

SMILES: COC(=O)[C@@H]1CCCN1Cc1cn(CCCc2ccccc2)nn1 [Compound 3e, Methyl ((1-(3-Phenylpropyl)-1H-1,2,3-Triazol-4-yl)Methyl)-L-Prolinate]
IC50 [2, 4]: > 0.1 mM | Effect on parasite growth at the maximum concentration ([2]; epimastigotes): did not affect the parasite growth; also recorded: inactive

SMILES: COC(=O)[C@@H]1CCCN1Cc1cn(CC=Cc2ccccc2)nn1 [Compound 3f, Methyl ((1-Cinnamyl-1H-1,2,3-Triazol-4-yl)Methyl)-L-Prolinate]
IC50 [2, 4]: > 0.1 mM | Effect on parasite growth at the maximum concentration ([2]; epimastigotes): did not affect the parasite growth; also recorded: inactive

SMILES: COC(=O)[C@@H]1CCCN1Cc1cn(Cc2ccc3ccccc3c2)nn1 [Compound 3g, Methyl ((1-(Naphthalen-2-Ylmethyl)-1H-1,2,3-Triazol-4-yl)Methyl)-L-Prolinate]
IC50 [2, 4]: 0.1 mM | melting point: 64 to 64.9 °C

SMILES: CCCCCCCCCCCCCCCCCCCCn1cc(CN2CCC[C@H]2C(=O)OC)nn1 [Compound 3l, Methyl ((1-Icosyl-1H-1,2,3-Triazol-4-yl)Methyl)-L-Prolinate]
IC50 [2, 4]: 0.1 mM | melting point: 72.7 to 73.7 °C

SMILES: O=C(O)[C@@H]1CSCN1 [Compound T4C, L-thiazolidine-4-carboxylic acid]
IC50 ([1]; ref Magdaleno et al., 2009, read-out: IC50 on T. cruzi epimastigotes): 890 µM

Now from value to compound, other results behind:

IC50 [2, 4]: > 0.1 mM
SMILES: CCOC(=O)Cn1cc(CN2CCC[C@H]2C(=O)OC)nn1 [Compound 3a, Methyl ((1-(2-Ethoxy-2-Oxoethyl)-1H-1,2,3-Triazol-4-yl)Methyl)-L-Prolinate]
Effect on parasite growth at the maximum concentration ([2]; epimastigotes): did not affect the parasite growth; also recorded: inactive

IC50 [2, 4]: > 0.1 mM
SMILES: CCOC(=O)CCCCn1cc(CN2CCC[C@H]2C(=O)OC)nn1 [Compound 3b, Methyl ((1-(5-Ethoxy-5-Oxopentyl)-1H-1,2,3-Triazol-4-yl)Methyl)-L-Prolinate]
Effect on parasite growth at the maximum concentration ([2]; epimastigotes): did not affect the parasite growth; also recorded: inactive

IC50 [2, 4]: > 0.1 mM
SMILES: CCCCCCCCn1cc(CN2CCC[C@H]2C(=O)OC)nn1 [Compound 3h, Methyl ((1-Octyl-1H-1,2,3-Triazol-4-yl)Methyl)-L-Prolinate]
Effect on parasite growth at the maximum concentration ([2]; epimastigotes): did not affect the parasite growth; also recorded: inactive

IC50 [2, 4]: < 0.04 mM | IC50 [2, 5]: < 0.05 mM and 0.038 mM and 0.039 mM
SMILES: CCCCCCCCCCn1cc(CN2CCC[C@H]2C(=O)OC)nn1 [Compound 3i, Methyl ((1-Decyl-1H-1,2,3-Triazol-4-yl)Methyl)-L-Prolinate]
Times more active than T4C [2]: 23 | Selectivity index (IC50 Vero cells / IC50 T. cruzi epimastigotes) (Vero cells): 1.13 | IC50 (Vero cells): 43 µM | Proline uptake inhibition (in words) (L-proline transporter): markedly reduction of the internalized proline

IC50 [2, 6]: 0.0245 mM | melting point: 60 to 60.9 °C
SMILES: CCCCCCCCCCCCCCCCn1cc(CN2CCC[C@H]2C(=O)OC)nn1 [Compound 3j, Methyl ((1-Hexadecyl-1H-1,2,3-Triazol-4-yl)Methyl)-L-Prolinate]
Times more active than T4C [2]: 36 | % of Proline inh. (L-proline transporter): 20% and 18^# % | Solubility [3]: not soluble

IC50 [2, 4]: < 0.04 mM | IC50 [2, 5]: < 0.05 mM and 0.0351 mM
SMILES: CCCCCCCC/C=C\CCCCCCCCn1cc(CN2CCC[C@H]2C(=O)OC)nn1 [Compound 3k, Methyl (Z)-((1-(Octadec-9-en-1-yl)-1H-1,2,3-Triazol-4-yl)Methyl)-L-Prolinate]
Times more active than T4C [2]: 22 | Selectivity index (IC50 Vero cells / IC50 T. cruzi epimastigotes) (Vero cells): 0.43 | IC50 (Vero cells): 17 µM | % of Proline inh. (L-proline transporter): 0% | Proline uptake inhibition (in words) (L-proline transporter): no inhibition

IC50 [2, 4]: > 0.1 mM
SMILES: COC(=O)[C@@H]1CCCN1Cc1cn(CC=C(C)CCC=C(C)C)nn1 [Compound 3m, Methyl ((1-(3,7-Dimethylocta-2,6-Dien-1-yl)-1H-1,2,3-Triazol-4-yl)Methyl)-L-Prolinate]
Effect on parasite growth at the maximum concentration ([2]; epimastigotes): did not affect the parasite growth; also recorded: inactive

IC50 [2, 4]: < 0.05 mM | IC50 [2, 5]: 0.0483 ± 0.00129 mM
SMILES: COC(=O)[C@@H]1CCCN1Cc1cn(C/C=C(\C)CC/C=C(\C)CCC=C(C)C)nn1 [Compound 3n, Methyl ((1-((2E,6E)-3,7,11-Trimethyldodeca-2,6,10-Trien-1-yl)-1H-1,2,3-Triazol-4-yl)Methyl)-L-Prolinate]
Times more active than T4C [2]: 18 | Selectivity index (IC50 Vero cells / IC50 T. cruzi epimastigotes) (Vero cells): 0.25 | IC50 (Vero cells): 14 µM | Proline uptake inhibition (in words) (L-proline transporter): complete inhibition; also recorded: markedly reduction of the internalized proline

IC50 [2, 4]: 0.0586 ± 0.00137 mM | IC50 [2, 6]: 0.0596 mM
SMILES: COC(=O)[C@@H]1CCCN1Cc1cn(C/C=C(\C)CC/C=C(/C)CCC=C(C)C)nn1 [Compound 3o, Methyl ((1-((2E,6Z)-3,7,11-Trimethyldodeca-2,6,10-Trien-1-yl)-1H-1,2,3-Triazol-4-yl)Methyl)-L-Prolinate]

IC50 [2, 4]: 0.0483 mM | IC50 [2, 5]: 0.0697 ± 0.00217 mM
SMILES: COC(=O)[C@@H]1CCCN1Cc1cn(C/C=C(\C)CCCC(C)CCCC(C)CCCC(C)C)nn1 (stereo partly drawn) [Compound 3p, Methyl ((1-((E)-3,7,11,15-Tetramethylhexadec-2-en-1-yl)-1H-1,2,3-Triazol-4-yl)Methyl) -L-Prolinate]

IC50 [2, 4]: 0.0483 ± 0.00581 mM
SMILES: COC(=O)[C@@H]1CCCN1Cc1cn(CC=C(C)CCCC(C)CCCC(C)CCCC(C)C)nn1 (stereo partly drawn) [Compound 3q, Methyl ((1-(3,7,11,15-Tetramethylhexadec-2-en-1-yl)-1H-1,2,3-Triazol-4-yl)Methyl)-L-Prolinate]
